Assay: in vitro
Conditions: for Concentration (μM) of analyte PEA, 0 min / Concentration (μM) of analyte PEA, 10 min / Concentration (μM) of analyte PEA, 20 min / Concentration (μM) of analyte PEA, 30 min / Concentration (μM) of analyte PEA, 60 min / % Remaining of Initial (n = 1), 0 min / % Remaining of Initial (n = 1), 10 min / % Remaining of Initial (n = 1), 20 min / % Remaining of Initial (n = 1), 30 min / % Remaining of Initial (n = 1), 60 min: 1 μM; for % Remaining of Initial (n = 1), 0 min: s9, 0 h; for % Remaining of Initial (n = 1), 10 min: s9, 10 min; for % Remaining of Initial (n = 1), 20 min: s9, 20 min; for % Remaining of Initial (n = 1), 30 min: s9, 0.5 h; for % Remaining of Initial (n = 1), 60 min: s9, 1 h
Outline: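 Test article at 1 μM final was pre-equilibrated in liver S9 at 37° C before cofactor addition started the reaction. Samples were taken at 0–60 min and quenched in acidified acetonitrile. Prodrug and PEA were quantified by LC-MS/MS; percent remaining was relative to time 0, with half-life from single-phase exponential decay.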

[1] = both, human, s9, Half-life (min)
[2] = male, Beagle, dog, s9, Half-life (min)
[3] = male, CD-1, mouse, s9, Half-life (min)

CCCCCCCCCCCCCCCC(=O)NCCOC(=O)CCC(=O)OCC(COC(=O)CCCCCCC)OC(=O)CCCCCCC (stereo not drawn) [Compound I-3, PEA-Succinate-Glycerol-Di-Caprylic]
Concentration (μM) of analyte PEA, 0 min (both, human): 0.00032 µM
Concentration (μM) of analyte PEA, 10 min (both, human): 0.0058 µM
Concentration (μM) of analyte PEA, 20 min (both, human): 0.017 µM
Concentration (μM) of analyte PEA, 30 min (both, human): 0.015 µM
Concentration (μM) of analyte PEA, 60 min (both, human): 0.0096 µM
% Remaining of Initial (n = 1), 0 min (both, human): 100%
% Remaining of Initial (n = 1), 10 min (both, human): 104%
% Remaining of Initial (n = 1), 20 min (both, human): 89%
% Remaining of Initial (n = 1), 30 min (both, human): 95%
% Remaining of Initial (n = 1), 60 min (both, human): 66%
half-life at 1 μM [1]: > 60 min
Concentration (μM) of analyte PEA, 0 min (male, Beagle, dog): 0.010 µM
Concentration (μM) of analyte PEA, 10 min (male, Beagle, dog): 0.030 µM
Concentration (μM) of analyte PEA, 20 min (male, Beagle, dog): 0.035 µM
Concentration (μM) of analyte PEA, 30 min (male, Beagle, dog): 0.031 µM
Concentration (μM) of analyte PEA, 60 min (male, Beagle, dog): 0.029 µM
% Remaining of Initial (n = 1), 0 min (male, Beagle, dog): 100%
% Remaining of Initial (n = 1), 10 min (male, Beagle, dog): 104%
% Remaining of Initial (n = 1), 20 min (male, Beagle, dog): 89%
% Remaining of Initial (n = 1), 30 min (male, Beagle, dog): 80%
% Remaining of Initial (n = 1), 60 min (male, Beagle, dog): 86%
half-life at 1 μM [2]: > 60 min
Concentration (μM) of analyte PEA, 0 min (male, CD-1, mouse): 0.013 µM
Concentration (μM) of analyte PEA, 10 min (male, CD-1, mouse): 0.031 µM
Concentration (μM) of analyte PEA, 20 min (male, CD-1, mouse): 0.022 µM
Concentration (μM) of analyte PEA, 30 min (male, CD-1, mouse): 0.023 µM
Concentration (μM) of analyte PEA, 60 min (male, CD-1, mouse): 0.025 µM
% Remaining of Initial (n = 1), 0 min (male, CD-1, mouse): 100%
% Remaining of Initial (n = 1), 10 min (male, CD-1, mouse): 82%
% Remaining of Initial (n = 1), 20 min (male, CD-1, mouse): 61%
% Remaining of Initial (n = 1), 30 min (male, CD-1, mouse): 78%
% Remaining of Initial (n = 1), 60 min (male, CD-1, mouse): 61%
half-life at 1 μM [3]: > 60 min
half-life at 1 μM (male, CD-1, mouse, s9, Half-life (min), calculated half-life in parentheses): 87 min
Concentration (μM) of analyte PEA, 0 min (male, Sprague-Dawley, rat): 0.015 µM
Concentration (μM) of analyte PEA, 10 min (male, Sprague-Dawley, rat): 0.045 µM
Concentration (μM) of analyte PEA, 20 min (male, Sprague-Dawley, rat): 0.033 µM
Concentration (μM) of analyte PEA, 30 min (male, Sprague-Dawley, rat): 0.017 µM
Concentration (μM) of analyte PEA, 60 min (male, Sprague-Dawley, rat): 0.013 µM
% Remaining of Initial (n = 1), 0 min (male, Sprague-Dawley, rat): 100%
% Remaining of Initial (n = 1), 10 min (male, Sprague-Dawley, rat): 66%
% Remaining of Initial (n = 1), 20 min (male, Sprague-Dawley, rat): 69%
% Remaining of Initial (n = 1), 30 min (male, Sprague-Dawley, rat): 71%
% Remaining of Initial (n = 1), 60 min (male, Sprague-Dawley, rat): 52%
half-life at 1 μM (male, Sprague-Dawley, rat, s9, Half-life (min)): > 60 min
half-life at 1 μM (male, Sprague-Dawley, rat, s9, Half-life (min), calculated half-life in parentheses): 72 min

C[C@]12CC[C@H]3[C@@H](CCC4=CC(=O)CC[C@@]43C)[C@@H]1CC[C@@H]2O [Testosterone, testosterone, reference compound]
Half-life (Control Compound, Human liver S9): 28 min
Half-life (Control Compound, Mouse liver S9): 9.0 min
CLint (Control Compound, Rat liver S9): 0.260 ml/min/mg protein
Half-life (Human liver S9): 28 min
half-life (male, Beagle, s9): 25 min
Half-life (male, CD-1, mouse, s9): 17 min
half-life (male, CD-1, mouse, s9): 8.7 min
half-life (male, Sprague-Dawley, rat, s9, Half-life, Control Compound, Rat liver S9): 2.7 min
half-life at 1 μM (male, Sprague-Dawley, rat, s9, Half-life, Rat liver S9): 2.7 min
half-life (male, Sprague-Dawley, rat, s9, Half-life, control compound, rat liver S9): 2.7 min

CCCCCCCCCCCCCCCC(=O)NCCOC(=O)CCC(=O)OCC(O)CO (stereo not drawn) [Compound I-9]
Concentration (μM) of analyte PEA, 0 min (both, human): 0.35 µM
Concentration (μM) of analyte PEA, 10 min (both, human): 0.30 µM
Concentration (μM) of analyte PEA, 20 min (both, human): 0.18 µM
Concentration (μM) of analyte PEA, 30 min (both, human): 0.088 µM
Concentration (μM) of analyte PEA, 60 min (both, human): 0.028 µM
% Remaining of Initial (n = 1), 0 min (both, human): 100%
% Remaining of Initial (n = 1), 10 min (both, human): <1.0%
% Remaining of Initial (n = 1), 20 min (both, human): <1.0%
% Remaining of Initial (n = 1), 30 min (both, human): <1.0%
% Remaining of Initial (n = 1), 60 min (both, human): <1.0%
half-life at 1 μM [1]: < 1 min
Concentration (μM) of analyte PEA, 0 min (male, Beagle, dog): 0.32 µM
Concentration (μM) of analyte PEA, 10 min (male, Beagle, dog): 0.29 µM
Concentration (μM) of analyte PEA, 20 min (male, Beagle, dog): 0.21 µM
Concentration (μM) of analyte PEA, 30 min (male, Beagle, dog): 0.18 µM
Concentration (μM) of analyte PEA, 60 min (male, Beagle, dog): 0.078 µM
% Remaining of Initial (n = 1), 0 min (male, Beagle, dog): 100%
% Remaining of Initial (n = 1), 10 min (male, Beagle, dog): <1.0%
% Remaining of Initial (n = 1), 20 min (male, Beagle, dog): <1.0%
% Remaining of Initial (n = 1), 30 min (male, Beagle, dog): <1.0%
% Remaining of Initial (n = 1), 60 min (male, Beagle, dog): <1.0%
half-life at 1 μM [2]: < 1 min
Concentration (μM) of analyte PEA, 0 min (male, CD-1, mouse): 0.52 µM
Concentration (μM) of analyte PEA, 10 min (male, CD-1, mouse): 0.23 µM
Concentration (μM) of analyte PEA, 20 min (male, CD-1, mouse): 0.13 µM
Concentration (μM) of analyte PEA, 30 min (male, CD-1, mouse): 0.077 µM
Concentration (μM) of analyte PEA, 60 min (male, CD-1, mouse): 0.022 µM
% Remaining of Initial (n = 1), 0 min (male, CD-1, mouse): 100%
% Remaining of Initial (n = 1), 10 min (male, CD-1, mouse): <1.0%
% Remaining of Initial (n = 1), 20 min (male, CD-1, mouse): <1.0%
% Remaining of Initial (n = 1), 30 min (male, CD-1, mouse): <1.0%
% Remaining of Initial (n = 1), 60 min (male, CD-1, mouse): <1.0%
half-life at 1 μM [3]: < 1 min
Concentration (μM) of analyte PEA, 0 min (male, Sprague-Dawley, rat): 0.20 µM
Concentration (μM) of analyte PEA, 10 min (male, Sprague-Dawley, rat): 0.31 µM
Concentration (μM) of analyte PEA, 20 min (male, Sprague-Dawley, rat): 0.18 µM
Concentration (μM) of analyte PEA, 30 min (male, Sprague-Dawley, rat): 0.11 µM
Concentration (μM) of analyte PEA, 60 min (male, Sprague-Dawley, rat): 0.029 µM
% Remaining of Initial (n = 1), 0 min (male, Sprague-Dawley, rat): 100%
% Remaining of Initial (n = 1), 10 min (male, Sprague-Dawley, rat): 13%
% Remaining of Initial (n = 1), 20 min (male, Sprague-Dawley, rat): 2.1%
% Remaining of Initial (n = 1), 30 min (male, Sprague-Dawley, rat): <1.0%
% Remaining of Initial (n = 1), 60 min (male, Sprague-Dawley, rat): <1.0%

Source: patent US11547681B2, “N-acylethanolamide derivatives and uses thereof” (ELIEM THERAPEUTICS, INC., priority 2016, dated 2023)
